The text below walks through data of patent US11602534B2, “Pyrimidine derivative kinase inhibitors” (HEFEI INSTITUTES OF PHYSICAL SCIENCE, CHINESE ACADEMY OF …, priority 2017, dated 2023).

The subject of one experiment is Tel-cKit/T670I-BaF3. In words: Proliferation of Tel-cKit/T670I-BaF3 cells, CCK8 cell viability assay. The experiment is classed as cell-based. The following applies: Mus musculus, 72 hours, stably expressing cKIT/T670I. An outline of the steps:
(§1)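 Mouse BaF3 ± TEL-kinase fusion (human cKIT/PDGFRα/PDGFRβ kinase region, MSCV-Puro retrovirus, IL-3 removed → kinase-addicted). Viability by CCK8 (dehydrogenase), GI50 μM.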

The subject of another experiment is FLT3-ITD-BaF3. As to the kind of experiment: Proliferation of FLT3-ITD-BaF3 cells, CCK8 cell viability assay. Particulars: Mus musculus, 72 hours, stably expressing FLT3/ITD. The experiment is classed as cell-based. An outline of the steps:
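Human kinase-region sequences were PCR-amplified, fused behind N-terminal TEL in MSCV-Puro and stably introduced into mouse BaF3 by retrovirus. IL-3 was then removed to give kinase-dependent lines. Compound effects on these and on parental BaF3 are scored as GI50 (μM) via CCK8 viable-cell quantification.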
For orientation: Formazan colour is commonly taken as a measure of viable cells.

The subject of another experiment is TEL-PDGFRβ-BaF3. In words: Proliferation of TEL-PDGFRβ-BaF3 cells, CCK8 cell viability assay. It counts as cell-based. Particulars: Mus musculus, 72 hours, stably expressing PDGFRβ kinase. An outline of the steps:
as §1

Experiment [1] has as its system human acute myeloid leukemia cell strain MOLM-13. In words: Proliferation of MOLM-13 cells, Cell Titer-Glo. The experiment is classed as cell-based. The following applies: for GI50: Homo sapiens, MOLM-13, 72 hours, Cell Titer-Glo, FLT3/ITD and wild-type FLT3, read-out: GI50 MOLM13. How it is done:
(§2) In addition, in this example the inhibitory activity of preferred compounds (Compound 5 and Compound 135) was tested against the following cell strains: human acute myeloid leukemia cell strain MV4-11 (expressing FLT3/ITD mutant gene), human acute myeloid leukemia cell strain MOLM-13 (expressing FLT3/ITD mutant gene and wild-type FLT3 gene), human acute myeloid leukemia cell strain MOLM-14 (expressing FLT3/ITD mutant gene and wild-type FLT3 gene), human acute myeloid leukemia cell strain OCI-AML-3 (expressing FLT3 A680V mutant gene), human chronic lymphatic leukemia cell strain MEC-1, Chinese hamster lung (CHL) cells, Chinese hamster ovary (CHO) cells, wherein all the cells were purchased from ATCC. In the example the compounds of the present invention were added respectively into the above cells at different concentrations (0.000508 μM, 0.00152 μM, 0.00457 μM, 0.0137 μM, 0.0411 μM, 0.123 μM, 0.370 μM, 1.11 μM, 3.33 μM, 10 μM in DMSO) and the cells were incubated for 72 hours. The number of viable cells was determined by quantification of ATP in living cells using Cell Titer-Glo® (Promega, the USA) Luminescent Cell Viability Assay kit and thereby GI50 was calculated.

Experiment [2] relates to human acute myeloid leukemia cell strain MOLM-14. In words: Proliferation of MOLM-14 cells, Cell Titer-Glo. The experiment is classed as cell-based. The following applies: for GI50: Homo sapiens, MOLM-14, 72 hours, Cell Titer-Glo, FLT3/ITD and wild-type FLT3, read-out: GI50 MOLM14. How it is done:
as §2
On the technique in general: ATP-based viability assays read luminescence as a measure of living cells.

The test system of another experiment is protein kinase FLT3. In words: Phosphorylation of FLT3 in AML cells. The experiment is classed as cell-based, human. The following applies: MV-4-11, MOLM-13 and MOLM-14 cell lines; 4 hours; compounds 0.01-3 μM, PKC412 1 μM. How it is done: In cells having FLT3 gene and/or FLT3/ITD mutant gene, specifically, human acute myeloid leukemia cells MV4-11 (expressing FLT3/ITD mutant gene) cell strain and human acute myeloid leukemia cells MOLM-13 and MOLM-14 (expressing FLT3/ITD mutant gene and wild-type FLT3 gene) cell strains, Compound 5, Compound 135 and a FLT3 kinase inhibitor, PKC412 (purchased from Hao Yuan Chemexpress Company, Shanghai), which was used as the control, were evaluated for their effects in cells on phosphorylation of FLT3 and FLT3/ITD protein kinase and phosphorylation of the closely-related STATS protein which is downstream of FLT3 signaling pathways, as well as their effects on phosphorylation of other relevant protein kinases such as ERK and AKT, by assaying a number of cellular biochemical and functional endpoints. In addition, the effects on C-Myc and phosphorylation of the transcription factor NF-κB subunit p65 was also examined (FIGS. 1a-1f). Compound 5 and Compound 135 at different concentrations (0 μM, 0.01 μM, 0.03 μM, 0.1 μM, 0.3 μM, 1 μM, 3 μM in DMSO) and the FLT3 kinase inhibitor PKC412 (1 μM in DMSO) were used to treat acute myeloid leukemia cells MV-4-11, MOLM13 and MOLM-14 that had FLT3 and/or FLT3/ITD gene for 4 hours, respectively, and then the samples were collected. The effects of the compounds on the phosphorylation of proteins such as STATS, C-Myc, ERK, NF-κB p65, AKT in cells were tested (FIGS. 1a-1f).

The subject of experiment [3] is poly(ADP-ribose) polymerase (PARP). In words: Cell apoptosis: PARP cleavage by Western Blot in AML cells. The experiment is classed as cell-based, human. The following applies: 1 μM, 24 hours; MOLM-13, MOLM-14, MV-4-11. The text has this: In human acute myeloid leukemia cells MV4-11 (expressing FLT3/ITD mutant gene) cell strain and human acute myeloid leukemia cells MOLM-13 and MOLM-14 (expressing FLT3/ITD mutant gene and wild-type FLT3 gene) cell strains, the effects of Compound 5 and Compound 135 on protein cleavage of the DNA repairase poly(ADP-ribose) polymerase (PARP) and Caspase (cysteinyl aspartate-specific proteinase) 3 that were closely related to cell apoptosis were examined in cells in order to confirm whether the death of the cells after the administration was caused by apoptosis or necrosis. MOLM-13, MOLM-14, MV-4-11 cell strains were treated with Compound 5, Compound 135 (at different concentrations: 0 μM, 0.1 μM, 0.3 μM, 1 μM, 3 μM in DMSO) and the control compound PKC412 (purchased from MedChem Express) (1 μM in DMSO), respectively, and the cells were collected after 24 hours. Western Blot was used to detect the effects of different concentrations of compounds on protein cleavage of the DNA repairase poly(ADP-ribose) polymerase (PARP) and Caspase (cysteinyl aspartate-specific proteinase) 3.
(Immunoblotting shows a protein as a band on a membrane.)

As a reminder, the GI50 is the concentration that inhibits growth by half. For `CC(=O)Nc1cc(Oc2ccc(NC(=O)Cc3ccccc3C(F)(F)F)cc2)ncn1` [Example 135, N-[4-(6-acetylamino-pyrimidin-4-yloxy)-phenyl]-2-(2-trifluoromethyl-phenyl)-acetamide], the concentration for 50% growth inhibition (GI50) is more than 10 µM in the experiment with Tel-cKit/T670I-BaF3; 0.032 µM in the experiment on FLT3-ITD-BaF3; 0.04 µM in the experiment with TEL-PDGFRβ-BaF3; 0.466 µM in experiment [1]; 0.343 µM in experiment [2]. Also, the “phosphorylation of the protein kinase FLT3” value in the experiment with protein kinase FLT3 is reported as “capable of inhibiting phosphorylation”. Besides, the “cleavage of the DNA repairase poly(ADP-ribose) polymerase (PARP)” value in experiment [3] is given as “significant cleavage”.
For the molecule `CC(=O)Nc1cc(Oc2ccc(NC(=O)Cc3ccc(F)cc3F)cc2)ncn1` [Example 5, N-[4-(6-acetylamino-pyrimidin-4-yloxy)-phenyl]-2-(2,4-difluoro-phenyl)-acetamide], the GI50 in the experiment on Tel-cKit/T670I-BaF3 is more than 10 µM; in the experiment on FLT3-ITD-BaF3, 0.03 µM; in the experiment with TEL-PDGFRβ-BaF3, 0.058 µM; in experiment [1], 0.267 µM; in experiment [2], 0.333 µM. In addition, the “inhibition of MOLM13 (in words)” value in experiment [1] (summary of Table 3) was “selectively and strongly inhibited”. Besides, the “inhibition of MOLM14 (in words)” value in experiment [2] (summary of Table 3) is “selectively and strongly inhibited”. Moreover, in the experiment on protein kinase FLT3, the “phosphorylation of the protein kinase FLT3” value was “capable of inhibiting phosphorylation”. Moreover, the “cleavage of the DNA repairase poly(ADP-ribose) polymerase (PARP)” value in experiment [3] was “significant cleavage”.
